Earlier results, collected in patent US20130251663A1, “Tissue Preservation Fluid” (GREENBLENDZ, INC., priority 2012, published 2013).

Tested on: eyes nose and throat
Details: airborne exposure

C=O [formaldehyde]
Airborne concentration immediately dangerous to life and health: 100 ppm
Airborne concentration that can cause irritation of the eyes nose and throat: above 0.1 ppm
